Consider two molecules from ChEMBL document CHEMBL1135383, “Increase of the adenallene anti-HIV activity in cell culture using its bis(tBuSATE) phosphotriester derivative” (Bioorg Med Chem Lett, 2002).

The structures appear in SMILES notation. Some results are limits rather than exact numbers.

Assay [1] deals with MT2. Description: Cytotoxic concentration required to inhibit the replication of HIV-1 in MT-2 human T4 lymphoblastoid cell lines. Type of assay: functional.
The subject of assay [2] is CEM-SS. As to the kind of experiment: Cytotoxic concentration required to inhibit the replication of HIV-1 in CEM-SS human T4 lymphoblastoid cell lines. Type of assay: functional.
The subject of assay [3] is CEM-SS. Description: Effective concentration required to inhibit the replication of HIV-1 in CEMSS human T4 lymphoblastoid cell lines. Type of assay: functional, cell-based.
In assay [4] the test system is MT4. As to the kind of experiment: Cytotoxic concentration required to inhibit the replication of HIV-1 in MT-4 human T4 lymphoblastoid cell lines. Type of assay: functional.
The test system of assay [5] is MT4. Description: Effective concentration required to inhibit the replication of HIV-1 in MT-4 human T4 lymphoblastoid cell lines. Type of assay: functional, cell-based.
In assay [6] the test system is MT2. Description: Effective concentration required to inhibit the replication of HIV-1 in MT-2 human T4 lymphoblastoid cell lines. The format is functional, cell-based.

For the molecule `CC(C)(C)C(=O)SCCOP(=O)(OCC=C=Cn1cnc2c(N)ncnc21)OCCSC(=O)C(C)(C)C`, the figures for the CC50 in the assay with MT2 [1], with CEM-SS [2] and in the assay on MT4 [4] were 28 µM, above 10 µM and above 10 µM, respectively. For the same molecule, the concentration for a half-maximal effect (EC50) with CEM-SS [3] was found to be 1.2 µM; in the assay on MT4 [5], 8.9 µM; in the assay with MT2 [6], 6.4 µM.
Turning to `Nc1ncnc2c1ncn2C=C=CCO` (racemic), the cytotoxic concentration (CC50) in the assay on MT2 [1], in the assay with CEM-SS [2] and in the assay on MT4 [4] was above 100 µM throughout. Moreover, the EC50 with CEM-SS [3] was 56 µM; in the assay on MT4 [5], above 100 µM; in the assay on MT2 [6] it was above 100 µM.

The CC50 is the concentration that lowers cell viability or growth by half. Low readings indicate greater toxicity to the cells, high ones lower toxicity to the cells. What is called EC50 is the concentration needed to bring the measured effect to its halfway point. Low values mean an effect from little substance, high ones a need for much substance.
